Data reported in US10987339B2, “Uses of butylidenephthalide” (EVERFRONT BIOTECH INC., priority 2015, dated 2021).

What was measured:
[1] = test system: NHOKs (normal human oral keratinocytes); test: MTT assay, viability of NHOKs; type: cell-based; settings: 24 hours
Protocol: (§1) To investigate the effect of BP on inhibiting the growth of cancer stem cells, NHOKs (normal human oral keratinocytes) and HNC-TIC (head and neck cancer-derived tumor initiating cell)-like oral stem cells (i.e., ALDH1^+CD44^+-1 cell line or ALDH1^+CD44^+-2 cell line) were treated with different concentrations (0, 25, 50 and 100 μg/ml) of BP for 24 hours, and then, an MTT assay was utilized to analyzed the viabilities of NHOKs and HNC-TIC-like oral stem cells (i.e., ALDH1^+CD44^+-1 cell line and ALDH1^+CD44^+-2 cell line).

[2] = test system: HNC-TIC-like oral stem cells (ALDH1+CD44+-1 cell line and ALDH1+CD44+-2 cell line); test: MTT assay, viability of HNC-TIC-like oral stem cells; type: cell-based; settings: ALDH1+CD44+-1 and ALDH1+CD44+-2 cell lines, 0, 25, 50 and 100 μg/ml BP, 24 hours, FIG. 1
Protocol: as §1

Sox-2 [3] = test: Western blotting, Sox-2 expression in MiaPaCa-2 cells; type: cell-based; settings: MiaPaCa-2 cells, 0, 12.5, 25 and 50 μg/ml BP, 24 hours, FIG. 2
Protocol: (§2) It has been known that CD44, CD133, Sox-2 (sex-determining region Y protein (SRY)-related high-mobility group box 2) and Oct4 (octamerbinding transcription factor 4) proteins all are stemness-maintenance markers of cancer stem cells and participate in the regulation of the self-renewal and differentiation of cancer stem cells. MiaPaCa-2 cell line (i.e., a cell line of pancreatic cancer cells) was treated with different concentrations (0, 12.5, 25, and 50 μg/ml) of BP for 24 hours, and then, proteins were extracted from the cells to conduct Western blotting to determine the expressions of Sox-2, CD133 and CD44 proteins in the BP-treated MiaPaCa-2 cells. Yet another. HNC-TIC-like oral stem cells (i.e., ALDH1^+CD44^+-1 cell line or ALDH1^+CD44^+-2 cell line) were treated with different concentrations (0, 12.5, 25, and 50 μg/ml) of BP for 24 hours, and then, proteins were extracted from the cells to conduct Western blotting to determine the expressions of Sox-2 and Oct4 proteins in the BP-treated HNC-TIC-like oral stem cells (i.e., ALDH1^+CD44^+-1 cell line and ALDH1^+CD44^+-2 cell line).

CD133 = test: Western blotting, CD133 expression in MiaPaCa-2 cells; type: cell-based; settings: MiaPaCa-2 cells, 0, 12.5, 25 and 50 μg/ml BP, 24 hours, FIG. 2
Protocol: as §2

CD44 = test: Western blotting, CD44 expression in MiaPaCa-2 cells; type: cell-based; settings: MiaPaCa-2 cells, 0, 12.5, 25 and 50 μg/ml BP, 24 hours, FIG. 2
Protocol: as §2

Sox-2 [4] = test: Western blotting, Sox-2 expression in HNC-TIC-like oral stem cells; type: cell-based; settings: ALDH1+CD44+-1 and ALDH1+CD44+-2 cell lines, 0, 12.5, 25 and 50 μg/ml BP, 24 hours, FIG. 3
Protocol: as §2

Oct4 = test: Western blotting, Oct4 expression in HNC-TIC-like oral stem cells; type: cell-based; settings: ALDH1+CD44+-1 and ALDH1+CD44+-2 cell lines, 0, 12.5, 25 and 50 μg/ml BP, 24 hours, FIG. 3
Protocol: as §2

ALDH = test: ALDEFLUOR flow cytometry analysis of ALDH activity; type: cell-based; settings: group without DEAB addition, 0, 25 and 50 μg/ml BP, 24 hours, FIG. 4
Protocol: ALDH protein is also an important stemness-maintenance marker of cancer stem cells and participates in the regulation of the self-renewal and differentiation of cancer stem cells. HNC-TIC-like oral stem cells (i.e., ALDH1^+CD44^+-1 cell line or ALDH1^+CD44^+-2 cell line) were treated with different concentrations (0, 25 and 50 μg/ml) of BP for 24 hours, and then, 1×10^5 cells obtained from each group were separately suspended in 50 μl of a stem cell detection kit (i.e., ALDEEFLUOR array kit, purchased from […] Technologies Inc., Vancouver, Canada) buffer and the cell suspension of each group was separately added with ALDEFLUOR to a final concentration of 1 μM. Thereafter, a sample of each group was stained by […] and then analyzed by flow cytometry analysis to determine the ALDH activity of HNC-TIC-like oral stem cells (i.e., ALDH1^+CD44^+-1 cell line and ALDH1^+CD44^+-2 cell line).
The above experimental procedure was repeated, but the cell suspension of each group was further added with N,N-diethylaminobenzaldehyde (DEAB, i.e., an inhibitor of ALDH) to a final concentration of 150 μM of DEAB separately.

[5] = test system: HNC-TIC-like oral stem cells (ALDH1+CD44+-1 cell line or ALDH1+CD44+-2 cell line); test: Transwell invasion assay; type: cell-based
Text: In this research, the effect of BP on inhibiting the migration and invasion of cancer stem cells was investigated by a transwell invasion assay system (i.e., Transwell® system, purchased from Corning, UK) with a polycarbonate filter membrane of 8-μm pore size (purchased from Corning, UK). First, the polycarbonate filter membrane was coated with Matrigel™ (purchased from BD Pharmingen, USA), and then, the coated membrane was placed in the […] of the transwell invasion assay system. Then, the lower chamber was filled with 10% serum-containing medium. On the other hand, HNC-TIC-like oral stem cells (i.e., ALDH1^+CD44^+-1 cell line or ALDH1^+CD44^+-2 cell line) were treated with different concentrations (0, 25 and 50 μg/ml) of BP for 24 hours, and then, the treated cells of each group was cultured in the upper chamber which was filled with serum-free medium, at a cell density of […] cells/100 μl for 24 hours. […] The invasion cancer cells of each group were counted and photographed over five visual fields of the membrane with the use of a 100-fold magnification under a microscope. The relative invasion ability of cells of each experimental group was calculated based on the result of the group treated with 0 μg/ml of BP.

[6] = test system: HNC-TIC-like oral stem cells (ALDH1+CD44+-1 cell line or ALDH1+CD44+-2 cell line); test: Soft agar colony formation assay; type: cell-based
Protocol: In this research, a soft agar colony formation assay was used to investigate the effect of BP on inhibiting the tumor initiating activity of cancer stem cells. First, HNC-TIC-like oral stem cells (i.e., ALDH1^+CD44^+-1 cell line or ALDH1^+CD44^+-2 cell line) were treated with different concentrations (0, 25 and 50 μg/ml) of BP for 24 hours, and then, the treated cells of each group was separately seeded in the top agar [containing DMEM (Dulbecco's Modified Eagle's Medium medium), 10% (v/v) Fetal Calf Serum (FCS) and 0.3% (w/v) agar] (purchased from Sigma-Aldrich) at an initial cell number of 2×10^4. On the other hand, a six-well culture dish was coated with the bottom agar [containing DMEM, 10% (v/v) FCS and 0.6% (w/v) agar](purchased from Sigma-Aldrich), 2 ml for each well. After the bottom agar was solidified, each group of the top agar (containing oral cancer stem cells) was respectively added onto the bottom agar in different wells of the dish, 2 ml for each well. […] Lastly, the bottom agar was stained with 0.005% crystal violet, the number of colonies (with a diameter ≥100 μm) was counted over five fields per well with the use of a microscope, and those fields were photographed. The relative colony-forming ability of cells of each experimental group was calculated based on the result of the group treated with 0 μg/ml of BP.

[7] = test system: HNC-TIC-like oral stem cells stably transfected with GFP-tagged constructs; test: Tumor initiating activity animal experiment (subcutaneous GFP-tagged HNC-TIC-like oral stem cells); type: in vivo, BALB/c nu/nu mice
Protocol: In this research, the effect of BP on inhibiting the tumor initiating activity of cancer stem cells was further investigated by animal experiments. First, 5-6 weeks old BALB/c nu/nu mice (weight 18-22 g) were bred under the same condition for 4 weeks. Then, HNC-TIC-like oral stem cells stably transfected with GFP-tagged constructs were injected (1×10^4 cells/0.1 mL/mouse) subcutaneously into the axilla of mice. After tumors reached 100 mm^3, mice were grouped into one control group and two experimental groups (three groups in total, n=3 per group). Then, one experimental group was injected daily with 100 mg/kg of BP for 6 days and another experimental group was injected daily with 200 mg/kg of BP for 6 days. The control group was injected daily with a vehicle (without BP) for 6 days. Ten days after the injection of BP or vehicle, the length and width were measured every 2 days (22 days in total), and then, the average tumor volume was calculated according to the following Formula 1. At the same time, the GFP signal (i.e., green fluorescence) of each group was detected and photographed by the IVIS Imaging system. The GFP intensity of each group was analyzed by Image-Pro Plus software. [length×width^2]/2 (unit: mm^3) Formula 1: […]

## CCCC=C1OC(=O)c2ccccc21 [BP, butylidenephthalide]
[1]; 0, 25, 50 and 100 μg/ml BP, MTT, FIG. 1
  viability of NHOKs: did not decrease along with the increment in the concentration of BP
[1]; NHOKs, up to 100 μg/ml BP
  cytotoxicity to normal cells: no cytotoxicity to normal cells
[2]
  viability of HNC-TIC-like oral stem cells: decreased along with the increment in the concentration of BP
Sox-2 [3]
  expression of Sox-2 protein: significantly decreased along with the increment in the concentration of BP
CD133
  expression of CD133 protein: significantly decreased along with the increment in the concentration of BP
CD44
  expression of CD44 protein: significantly decreased along with the increment in the concentration of BP
Sox-2 [4]
  expression of Sox-2 protein: significantly decreased along with the increment in the concentration of BP
Oct4
  expression of Oct4 protein: significantly decreased along with the increment in the concentration of BP
ALDH
  number of live cells with ALDH activity: increased along with the increment in the concentration of BP
[5]; 0, 25 and 50 μg/ml BP for 24 hours, then 24 hours transwell, FIG. 5A
  number of cells on the polycarbonate filter membrane: significantly reduced along with the increment in the concentration of BP
[5]; 0, 25 and 50 μg/ml BP, relative to 0 μg/ml group, FIG. 5B
  relative invasion ability: decreased along with the increment in the concentration of BP
[6]; 0, 25 and 50 μg/ml BP for 24 hours, 4 weeks culture, FIG. 6A
  number of colonies in the bottom agar: significantly decreased along with the increment in the concentration of BP
[6]; 0, 25 and 50 μg/ml BP, relative to 0 μg/ml group, FIG. 6B
  relative colony-forming ability: decreased along with the increment in the concentration of BP
[7]; 100 mg/kg and 200 mg/kg BP groups, daily for 6 days, compared to control group, FIG. 7B
  tumor volume: decreased over a period of time
[7]; 100 mg/kg and 200 mg/kg BP groups, daily for 6 days, compared to control group, FIG. 7C, 7D
  GFP intensity: significantly decreased
[7]; 100 mg/kg or 200 mg/kg BP injected daily for 6 days, FIG. 7A
  body weight of mice: didn't change significantly
